Tests used:
LKB1 = target: T1, LKB1 (Homo sapiens, UniProt Q15831); assay: phosphorylation of synthetic peptide substrate LKBtide by LKB1; type: biochemical; conditions: 1 mM oligosaccharide
T1 sequence (Q15831 1-433): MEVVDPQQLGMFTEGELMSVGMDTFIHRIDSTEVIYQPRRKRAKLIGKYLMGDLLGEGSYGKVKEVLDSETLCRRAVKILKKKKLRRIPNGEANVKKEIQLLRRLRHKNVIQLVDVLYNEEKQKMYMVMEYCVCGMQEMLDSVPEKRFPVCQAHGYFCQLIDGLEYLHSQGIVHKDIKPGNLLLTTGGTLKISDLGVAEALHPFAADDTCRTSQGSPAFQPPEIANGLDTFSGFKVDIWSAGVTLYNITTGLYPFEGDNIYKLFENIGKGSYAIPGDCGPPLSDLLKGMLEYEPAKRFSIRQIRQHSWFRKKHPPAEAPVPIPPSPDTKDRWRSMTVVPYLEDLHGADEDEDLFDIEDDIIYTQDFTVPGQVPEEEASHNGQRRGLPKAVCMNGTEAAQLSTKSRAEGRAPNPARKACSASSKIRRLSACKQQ
T1 sequence (Q7RTN6 1-431 partner): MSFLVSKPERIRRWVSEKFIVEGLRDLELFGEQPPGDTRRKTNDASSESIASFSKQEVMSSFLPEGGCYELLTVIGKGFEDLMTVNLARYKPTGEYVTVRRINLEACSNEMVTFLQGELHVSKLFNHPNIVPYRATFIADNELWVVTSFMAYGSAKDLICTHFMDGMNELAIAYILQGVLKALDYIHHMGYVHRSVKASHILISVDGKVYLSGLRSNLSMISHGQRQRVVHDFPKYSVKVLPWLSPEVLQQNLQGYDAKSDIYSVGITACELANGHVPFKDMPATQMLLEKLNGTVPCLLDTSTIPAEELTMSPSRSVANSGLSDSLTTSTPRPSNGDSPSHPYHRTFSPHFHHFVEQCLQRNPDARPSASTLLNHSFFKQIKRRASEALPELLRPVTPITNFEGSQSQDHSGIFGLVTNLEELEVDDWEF
T1 sequence (Q9Y376 1-341 partner): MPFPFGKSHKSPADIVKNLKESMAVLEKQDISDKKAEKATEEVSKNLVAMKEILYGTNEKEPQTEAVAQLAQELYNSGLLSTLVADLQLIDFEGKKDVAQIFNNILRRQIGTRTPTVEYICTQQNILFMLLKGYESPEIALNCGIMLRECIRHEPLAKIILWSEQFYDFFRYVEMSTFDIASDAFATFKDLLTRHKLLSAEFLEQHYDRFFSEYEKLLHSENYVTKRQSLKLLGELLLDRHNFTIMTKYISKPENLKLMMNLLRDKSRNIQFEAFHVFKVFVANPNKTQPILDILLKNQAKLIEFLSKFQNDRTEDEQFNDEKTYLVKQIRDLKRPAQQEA
Excerpt: (§1) The inhibitory effects observed to this point represent allosteric inhibition, i.e., direct effects on the activity of the AMPK kinase domain of carbohydrate binding at a different site, i.e., the GBD on the β subunit. It was important to establish whether carbohydrates might also affect phosphorylation and dephosphorylation by upstream kinases and phosphatases. […] To confirm that the latter was not an effect on LKB1, we tested the effect of the oligosaccharide on phosphorylation of a synthetic peptide substrate, i.e., LKBtide ([Lizcano et al., 2004]).
Figure 7 Effect of Oligosaccharide Number 5, See Figure 6, on Dephosphorylation of AMPK by PP2Cα and on Phosphorylation by CaMKKβ and LKB1 (A) Effect of oligosaccharide on dephosphorylation by PP2Cα. Rat liver AMPK was incubated with PP2Cα in the presence and absence of 1 mM oligosaccharide; at various times, levels of total α subunit and phosphorylation on Thr-172 were assessed by western blotting. (B) Quantification of results as in (A); means ± SEM of two experiments. (C) Effect of oligosaccharide on phosphorylation by CaMKKβ. […] At various times, levels of total α subunit and of phosphorylation on Thr-172 were assessed by western blotting. (D) Quantification of results as in (C); means ± SEM (n = 2). […] IC50 values were determined as in Figure 2A and curves generated from the best-fit parameters. […]

[1] = tested on: phosphorylation of Thr-172 by LKB1; assay: phosphorylation of Thr-172 of rat liver AMPK by LKB1; type: biochemical; conditions: 1 mM oligosaccharide
Method: (§2) Figure 7 Effect of Oligosaccharide Number 5, See Figure 6, on Dephosphorylation of AMPK by PP2Cα and on Phosphorylation by CaMKKβ and LKB1 (A) Effect of oligosaccharide on dephosphorylation by PP2Cα. Rat liver AMPK was incubated with PP2Cα in the presence and absence of 1 mM oligosaccharide; at various times, levels of total α subunit and phosphorylation on Thr-172 were assessed by western blotting. (B) Quantification of results as in (A); means ± SEM of two experiments. (C) Effect of oligosaccharide on phosphorylation by CaMKKβ. Rat liver AMPK was dephosphorylated using PP1, okadaic acid was added to inhibit the phosphatase, and the protein was incubated with MgATP and CaMKKβ in the presence and absence of 1 mM oligosaccharide. At various times, levels of total α subunit and of phosphorylation on Thr-172 were assessed by western blotting. (D) Quantification of results as in (C); means ± SEM (n = 2). (E) Time course of effect of oligosaccharide on phosphorylation by LKB1, performed as in (C) but with LKB1 in place of CaMKKβ. (F) Effect of oligosaccharide on phosphorylation of a synthetic peptide substrate of LKB1 (mean ± SD; n = 2). (G) Inhibition of AMPK by bovine liver glycogen, a phosphorylase limit dextrin, and a mock-treated sample. IC50 values were determined as in Figure 2A and curves generated from the best-fit parameters. […]

[2] = tested on: dephosphorylation of AMPK by protein phosphatase-1; assay: dephosphorylation of AMPK by catalytic subunit of protein phosphatase-1; type: biochemical, rat; conditions: data not shown
Excerpt: as §1

[3] = tested on: dephosphorylation of purified rat liver AMPK by protein phosphatase-2Cα (PPM1A); assay: dephosphorylation of rat liver AMPK by PP2Cα, western blotting of pThr-172; type: biochemical; conditions: 1 mM oligosaccharide
Method: as §2

[4] = tested on: phosphorylation of Thr-172 by CaMKKβ; assay: phosphorylation of Thr-172 of rat liver AMPK by CaMKKβ; type: biochemical; conditions: 1 mM oligosaccharide
Method: as §2

`CO[C@H]1O[C@H](CO[C@H]2O[C@H](CO)[C@@H](O[C@H]3O[C@H](CO)[C@@H](O)[C@H](O)[C@H]3O)[C@H](O)[C@H]2O)[C@@H](O)[C@H](O)[C@H]1O` [Oligosaccharide 5, Glcα1→4Glcα1→6Glcα-OMe] was tested, and the “inhibition of LKBtide phosphorylation” value (LKB1) was “no significant inhibition”, the “extent of inhibition of phosphorylation of the rat liver αβγ complex by LKB1” value ([1]; Figure 7E) was “essentially complete” and the “inhibition of phosphorylation of Thr-172 by LKB1” value ([1]; time course) was “marked inhibition”. For the same compound, the “effect on dephosphorylation by protein phosphatase-1” value [2] was “negative results”, the “effect on dephosphorylation by PP2Cα” value [3] was “no significant effect” and the “inhibition of phosphorylation of Thr-172 by CaMKKβ” value [4] was “marked inhibition”.

Source: paper PMC2642990, “The Glycogen-Binding Domain on the AMPK β Subunit Allows the Kinase to Act as a Glycogen Sensor” (Cell Metabolism, 2009)
